Patent US20240009263A1, “COMPOUNDS FOR TREATING ENVELOPED VIRUS INFECTIONS” (priority 2020, published 2024)
Like-named read-outs stand apart in the source and are kept apart here. Non-standard residues stand in square brackets, D forms with d. Residues, ends and D or L forms follow the SMILES beside them. *: point of attachment. Nva = CCC[C@H](N)C(=O)O; Cbz = O=C(OCc1ccccc1)*

Columns and labels:
in vitro [1] = settings: African green monkey
[2] = test system: SARS-CoV-2 strain BavPat1; settings: Vero-E6 cells
[3] = test system: SARS-CoV-2 strain BavPat1; experiment: microbe, parasite or virus in culture; type: cell-based; settings: Severe acute respiratory syndrome coronavirus 2; VeroE6-TMPRSS2+ cells, pilot study
[4] = test system: SARS-CoV-2 strain BavPat1; experiment: microbe, parasite or virus in culture; settings: Severe acute respiratory syndrome coronavirus 2, Vero C1008, 48 h
in vitro [5] = settings: human
[6] = test system: SARS-CoV-2 strain BavPat1; experiment: SARS-CoV-2 replication inhibition in Caco-2 cells (viral RNA RT-qPCR); settings: for SI = CC50/EC50: Caco-2 cells; for EC50 / EC90: Severe acute respiratory syndrome coronavirus 2, Caco-2, 48 h
[7] = Cytotoxicity in VeroE6 cells (CellTiter Blue); settings: African green monkey

Row | Structure (SMILES) | CC50 at 2 days (in vitro [1]) [nM] | SI = CC50/EC50 [2] | balance between virus inhibition and cytotoxicity (selectivity index), in words [2] | EC50 [3] [nM] | EC90 [3] [nM] | EC50 [4] [nM] | EC90 [4] [nM] | CC50 at 2 days (in vitro [5]) [nM] | SI = CC50/EC50 [6] | EC50 [6] [nM] | EC90 [6] [nM] | CC50 at 2 days [7] [nM]
1 | CC(C)C[C@@H](C=O)NC(=O)[C@H](CC(C)C)NC(=O)[C@H](CC(C)C)NC(=O)OCc1ccccc1 [Compound 1] (Cbz-Leu-Leu-Leu-aldehyde) | 2790 | 22.8 | advantageous balance | 850 | 3300 | 120 | 500 to 1000 | 230 | 1.89 | 120 | 130 | –
2 | CCC[C@@H](C=O)NC(=O)[C@H](CC(C)C)NC(=O)[C@H](CC(C)C)NC(=O)OCc1ccccc1 [Compound 2] (Cbz-Leu-Leu-[Nva]-aldehyde) | > 2000 | >33.3 | best selectivity index | – | – | 60 | 160 | 450 | 3.50 | 130 | 630 | –
3 | CC(=O)N[C@@H](CC(C)C)C(=O)N[C@@H](CC(C)C)C(=O)N[C@H](C=O)CC(C)C [Compound 3] (Ac-Leu-Leu-Leu-aldehyde) | 13600 | >45.2 | best selectivity index | – | – | < 300 | 1570 | – | – | – | – | –
4 | CC(C)C[C@@H](C=O)NC(=O)[C@H](CC(C)C)NC(=O)[C@H](Cc1ccccc1)NC(=O)OCc1ccccc1 [Compound 4] (Cbz-Phe-Leu-Leu-aldehyde) | 6460 | 49.69 | best selectivity index | > 2000 | > 2000 | 130 | 600 | – | – | – | – | –
5 | CC(C)C[C@H](NC(=O)OCc1ccccc1)C(=O)N[C@@H](CC(C)C)C(=O)N[C@H](C=O)Cc1ccccc1 [Compound 5] (Cbz-Leu-Leu-Phe-aldehyde) | > 2000 | >33.3 | best selectivity index | 1780 | 2300 | 60 | 1930 | 480 | 5.13 | 90 | 470 | –
6 | CC(C)C[C@@H](C=O)NC(=O)[C@H](Cc1ccccc1)NC(=O)[C@H](CC(C)C)NC(=O)OCc1ccccc1 [Compound 6] (Cbz-Leu-Phe-Leu-aldehyde) | 1680 | 12.92 | best selectivity index | 140 | > 2000 | 310 | 11200 | – | – | – | – | –
7 | CC(C)C[C@@H](C=O)NC(=O)[C@H](CC(C)C)NC(=O)[C@H](CC(C)C)NC(=O)c1cnccn1 [Compound 7] | – | >2.94 | advantageous balance | – | – | 680 | 1930 | – | – | – | – | > 2000
8 | CC(C)C[C@@H](C=O)NC(=O)[C@H](CC(C)C)NC(=O)[C@H](CC(C)C)NC(=O)Cc1ccc(F)cc1F [Compound 8] | > 2000 | >3.84 | advantageous balance | – | – | 520 | 1280 | – | – | – | – | –
9 | CC(C)C[C@H](NC(=O)[C@H](Cc1ccccc1)NC(=O)c1cnccn1)B(O)O [Compound 9, reference compound] | 230 | 0.22 | not favourable | – | – | 1050 | 21500 | – | – | – | – | –
10 | CCC(CC)COC(=O)[C@H](C)N[P@](=O)(OC[C@H]1O[C@@](C#N)(c2ccc3c(N)ncnn23)[C@H](O)[C@@H]1O)Oc1ccccc1 [Rem, Remdesivir, reference compound] | – | – | – | – | 1660 | 2180 | 2450 | – | – | – | – | –
